A short description of this data set: Cleavage rate was reported. Type of data set: ADME.

Consider `O=c1ccn([C@@H]2O[C@H](CO)[C@@H](O)[C@H]2O)c(=O)[nH]1` [URIDINE], for which the K obs came to 1.17 min⁻¹. For the compound `O=c1ccccn1C1O[C@H](CO)[C@@H](O)[C@H]1O` (stereo partly drawn), the K obs was 2.01 min⁻¹. For `O=c1ccn(C2O[C@H](CO)[C@@H](O)[C@H]2O)cc1` (stereo partly drawn), the K obs came out at 0.095 min⁻¹.

The values are drawn from ChEMBL document CHEMBL1128972, “Synthesis of pyridinone ribonucleoside 3-O-phosphoramidites and their incorporation into oligoribonucleotides” (Bioorg Med Chem Lett, 1996).
